Reference: patent publication US20110319398A1 (priority 2010, published 2011)

Assays:
[1] = test system: ExoS translocation from P. aeruginosa Pa388 into HEp-2 cells; format: cell-based
[2] = test system: YadA-mediated autoagglutination; format: cell-based, Y. pseudotuberculosis; settings: 60 μM C20, 3 hrs at 37 C
[3] = test system: HEp-2 cells; experiment: LDH release assay; format: cell-based; settings: 60 μM compound, absence of Yptb
Procedure: Compounds were resuspended in RPMI supplemented with 5% FBS to a final concentration of 60 μM. Media was replaced with a volume of 100 μL and cells were incubated at 37 C and 5% CO2. A 50 μL sample was taken from the wells at 2 hrs and 24 hrs for quantification of LDH. LDH in supernatants was quantified using the Promega Cytotox 96 Non-Radioactive Cytotoxicity Assay Kit. Control samples for lysis in the absence of compounds were incubated for 45 minutes in Lysis Buffer (supplied in the kit) then collected at the same time points. The OD at 492 nm was measured spectrophotometrically on a SpectraMax 5 plate reader (Molecular Devices, Sunnyvale, Calif.).
The remaining 12 compounds were evaluated for toxicity to either Yptb or HEp-2 cells. […] The 9 non-antibacterial compounds were assessed for their ability to cause damage to epithelial cells by monitoring the release of lactate dehydrogenase (LDH), a cytoplasmic enzyme whose presence in cell supernatants indicates membrane damage. HEp-2 cells were incubated with 60 μM of each compound, in the absence of Yptb. Tissue culture supernatants were collected after 2 or 24 hours and assessed for LDH levels. […] In contrast, C35 had above baseline LDH release levels at 2 hours and this effect was exacerbated at 24 hours (FIG. 3B). […] Because of the high-level of toxicity caused by C35 at both time points, it was excluded from further characterization. In all subsequent experiments with the remaining 8 compounds, HEp-2 cells were exposed to compounds for 2 hours or less.

[4] = test system: YopE leaked into culture supernatants; format: cell-based, Y. pseudotuberculosis; settings: 60 μM compound, HEp-2 cells infected with WT Yptb, compared to DMSO
[5] = test system: Sheep red blood cells infected with Yptb; format: cell-based
[6] = test system: Yptb WT IP2666; format: cell-based, Y. pseudotuberculosis; settings: 60 μM compound, 26 C, 7 hrs
[7] = test system: YscF polymer (TTSS needle); design: species or system Y. pseudotuberculosis; settings: 60 μM compound, 1 mM BS3, Western blot with α-YscF
[8] = test system: adherence of Yptb to HEp-2 cells; format: cell-based, Y. pseudotuberculosis
[9] = test system: YscF; format: cell-based, Y. pseudotuberculosis; settings: 60 μM compound, 5 mM CaCl2, 37 C, 1.5 hours
[10] = test system: YopE translocation into HEp-2 cells; format: cell-based, Y. pseudotuberculosis; settings: 60 μM compound; HEp-2 cells infected with Yptb, 45 minutes
[11] = test system: YopE translocation into the cytosol of HEp-2 cells; format: cell-based, Y. pseudotuberculosis; settings: 60 μM compound, compared to DMSO control
[12] = test system: V. cholerae; settings: mouse, in vivo; cited from earlier work
[13] = test system: V. cholerae; settings: cited from earlier work
[14] = test system: Yop secretion; format: cell-based, Y. pseudotuberculosis; settings: 60 μM compound, secretion media (absence of calcium), 37 C

Row | SMILES | ExoS-dependent cell rounding [1] | LDH release at 24 hours [3] | YopE/Yop leakage into culture supernatants [4] | Effect on bacterial growth (OD600) [6] | YscF cross-linking pattern (dimer crosslink) [7] | other results
1 | Cc1nn(-c2ccccc2)c(C)c1/N=C/c1c(O)ccc2ccccc12 [Compound C20, 1-[(E)-(3,5-dimethyl-1-phenyl-pyrazol-4-yl)iminomethyl]naphthalen-2-ol] | reduced cell-rounding | slightly elevated LDH release | elevated levels of Yop leakage | no effect on bacterial growth | weaker dimer crosslink | Autoagglutination activity of Yptb [2]: unaffected; Hemolysis (leakage of hemoglobin) of SRBCs infected with Yptb [5]: slightly reduced leakage of hemoglobin; Binding of Invasin-deleted (Δinv) Yptb to HEp-2 cells [8]: did not block the ability of C20 to further inhibit binding; Binding of Yptb to HEp-2 cells, of the levels of the DMSO-treated control ([8]; 60 μM compound, WT Yptb, ELISA): 15-20%
2 | O=C1NC2=C(C(=O)c3ccccc32)C(c2ccccc2)S1 (centres unmarked) [Compound C15, 4-phenyl-1,4-dihydroindeno[1,2-d][1,3]thiazine-2,5-dione] | little or no effect | did not cause further membrane damage | significant leakage | no effect on bacterial growth | weaker dimer crosslink | LDH release at 2 hours ([3]; 2 hours): elevated LDH release
3 | O=C(c1coc2nc3ccccc3nc12)N1CCN(c2ccccc2)CC1 [Compound C19, furo[3,2-b]quinoxalin-3-yl-(4-phenylpiperazin-1-yl)methanone] | little or no effect | – | significant leakage | no effect on bacterial growth | – | –
4 | Cc1ccc(C2=N/C(=C/Nc3ccc4c(c3)OCCO4)C(=O)O2)cc1 [Compound C38, (4E)-4-[(2,3-dihydro-1,4-benzodioxin-6-ylamino)methylene]-2-(p-tolyl)oxazol-5-one] | reduced cell-rounding | – | elevated levels of Yop leakage | no effect on bacterial growth | – | Surface YscF staining [9]: reduced
5 | CCOc1ccc(NC(=O)c2cnccn2)cc1 [Compound C7, N-(4-ethoxyphenyl)pyrazine-2-carboxamide] | little or no effect | – | significant leakage | no effect on bacterial growth | – | Inhibition of YopE-mediated cell rounding [10]: cell-rounding defect was weak; YopE translocation into HEp-2 cells [11]: did not inhibit translocation of YopE
6 | c1ccc2c(-c3csc(-c4ccncc4)n3)c[nH]c2c1 [Compound C24, 4-(1H-indol-3-yl)-2-(4-pyridyl)thiazole] | reduced cell-rounding | slightly elevated LDH release | significant leakage | no effect on bacterial growth | – | Surface YscF staining [9]: reduced
7 | O=C(O)CCCN1C(=O)c2cccc3cccc(c23)C1=O [Virstatin] | – | – | – | – | – | Bacterial burden on mice infected with V. cholerae [12]: reduces the bacterial burden; Effects on bacterial growth [13]: without deleterious effects on bacterial growth
8 | Cc1ccc(NC(=O)Nc2cc3c(cc2N2CCCC2)n(C)c(=O)n3C)cc1C [Compound C34, 1-(1,3-dimethyl-2-oxo-6-pyrrolidin-1-yl-benzimidazol-5-yl)-3-(3,4-dimethylphenyl)urea] | reduced cell-rounding | – | elevated levels of Yop leakage | no effect on bacterial growth | consistently weaker | Inhibition of YopE-mediated cell rounding [10]: potent inhibitor of cell-rounding; Ability to secrete Yops [14]: secreted less, but detectable levels of Yops; YopE translocation into HEp-2 cells [11]: did not inhibit translocation of YopE
